Data on two substances can be found in patent US8835617B2, “Polynucleotides encoding a human TRIM-Cyp fusion polypeptide, compositions thereof, and methods of using same” (priority 2008, dated 2014).

In one assay the test system is HIV-1NL4-3-GFP-IRES-Nef. Briefly: Spreading infection after electroporation of proviral DNA into Jurkat T cell lines. Format: cell-based. An excerpt:
Studies were designed to see whether a similar system could be exploited in order to select for a T5Cyp-resistant virus. One approach was to introduce HIV-1NL4-3-GFP-IRES-Nef proviral DNA into Jurkat T cell lines expressing T5 or control by electroporation, to ensure that spreading infection was initiated by cell associated virus in the absence of free virus. […] Again no T5Cyp-resistant HIV-1 could be derived in this experimental setting.

A further assay deals with HIV-2ROD. Briefly: HIV-2ROD GFP vector challenge of CRFK cells expressing T5 proteins. In kind it is cell-based. The following applies: in words. An excerpt:
Most HIV-1 plasmids and vectors have been described previously (Berthoux et al., 2004). pNL4-3 contains a complete infectious HIV-1 provirus. pNL4-3-R5 bears the V3 loop of the CCR5-tropic 92TH014-2 HIV-1 strain (Papkalla et al., 2002). To generate pNL4-3-GFP-IRES-Nef, enhanced green fluorescent protein (eGFP) and the ECMV (encephalomyocarditis virus) IRES (internal ribosome entry site) were inserted upstream of nef pNLΔenvGFP is pNL4-3 with an env-inactivating mutation and eGFP in place of nef. […] For biochemistry, hT5Cyps were cloned into the p3xFLAG-CMV-7.1 expression vector (Sigma) and HIV-1 CA was expressed as a GST-fusion using the EF1α promoter.
2×10^4 adherent cells/well or 8×10^4 suspension cells/well were plated in 48-well plates (Nunc) for challenge with single-cycle GFP reporter vectors that were titered as indicated. GFP synthesis was assessed by flow cytometry 48 hrs post-infection. […] For infection of 10^6 primary CD4^+ T cells or macrophages, 15 ng p24/10^6 cells of a CXCR4- or CCR5-tropic HIV-1NL4-3 stock was used, and infection was monitored by assessing the accumulation of RT activity in the supernatant (Sayah et al., 2004). FACSCalibur, Cellquest Pro (Becton Dickinson), and FlowJo software (Treestar, Inc.) were used to record and analyze fluorescence. […]

The next assay concerns HIV-1. As to the method:
Since the objective was to engineer a fully human HIV-1 restriction factor, hCypA was the fused at 10 different positions along the length of hT5α (FIG. 44A).
2×10^4 adherent cells/well or 8×10^4 suspension cells/well were plated in 48-well plates (Nunc) for challenge with single-cycle GFP reporter vectors that were titered as indicated. GFP synthesis was assessed by flow cytometry 48 hrs post-infection. For spreading infection, 10^6 Jurkat cells were infected with 1 to 15 ng p24/10^6 cells of HIV-1NL4-3-GFP-IRES-Nef. Cells were split every 3 days, fixed in 0.5% paraformaldehyde/PBS, and assayed for GFP synthesis by flow cytometry. For infection of 10^6 primary CD4^+ T cells or macrophages, 15 ng p24/10^6 cells of a CXCR4- or CCR5-tropic HIV-1NL4-3 stock was used, and infection was monitored by assessing the accumulation of RT activity in the supernatant (Sayah et al., 2004). FACSCalibur, Cellquest Pro (Becton Dickinson), and FlowJo software (Treestar, Inc.) were used to record and analyze fluorescence. 1-5×10^5 events were acquired for analysis. […]
2×10^4 adherent cells/well or 8×10^4 suspension cells/well were plated in 48-well plates (Nunc) for challenge with single-cycle GFP reporter vectors that were titered as indicated. GFP synthesis was assessed by flow cytometry 48 hrs post-infection. […]

For the substance “AoT5Cyp: Aotus (owl monkey) TRIM5-cyclophilin A fusion protein [reference compound]”, the “course of infection after electroporation of provirus” value with HIV-1NL4-3-GFP-IRES-Nef was “the infection was self-limiting”. Moreover, in the assay with HIV-2ROD, the “restriction of HIV-2ROD” value is “blocked comparably”. The “magnitude of restriction with CypA knockdown” value in the assay with HIV-1 (CypA KD vs Luc KD Jurkat T cells) is recorded as “Equivalent results”.

With “hT5Cyp: human TRIM5α fused at serine 322 to human cyclophilin A, SEQ ID NO:12”, the “course of infection after electroporation of provirus” value in the assay on HIV-1NL4-3-GFP-IRES-Nef is reported as “the infection was self-limiting”. Besides, in the assay with HIV-2ROD, the “restriction of HIV-2ROD” value is “blocked comparably”. Moreover, in the assay on HIV-1 (in words, Jurkat T cells (b397 also THP-1 monocytes)), the HIV-1 restriction activity result was “activity comparable to AoT5Cyp”.
